Results published in US9284345B2 (priority 2007, dated 2016).
“And” between values parts separate entries of the source, which are not always exact repeats. Equal values may be shown once. Read-outs that look alike come from different tables or passages of the source.

Columns and labels:
[1] = system: Shionogi mouse mammary carcinoma cells; assay: cells; type: cell-based; details: for Ki: read-out: Shionogi cells Antiandrogenic activity Ki
[2] = in vivo; details: male, Sprague-Dawley, rat, plasma, po, 0.5 mg
[3] = system: CX+ 4-DIONE in Mature Rat; assay: Systemic antiandrogenic activity in mature male rats; type: in vivo
[4] = system: androgen receptor; assay: Antiandrogen / SARM / androgen profile observed on structural change; details: structure-activity observation in estratriene derivatives
Excerpt: Preferred positions on the steroid to this change in activities are 3, 4, 11β, 16 and 17α. […] Moreover, when we changed the 4-fluoro by a 4-chloro on EM-6583, we obtained a pure androgen (EM-5697). Similarly, when we increased the size of the chain at 17α-position on (1,4-phenylene as a spacer group), EM-8419 became a SARM. Again, when we changed the 4-fluoro by a 4-chloro on EM-8419, we obtained a pure androgen (EM-5313).
We also believed that a larger size increase could reverse the observed tendency (androgen to SARM or antiandrogen). Thus, it is not obvious to make good predictions of the biological activity of this compound family but some trends are observable.

[5] = biological target: T1, Human Androgen Receptor (Homo sapiens, UniProt P10275); type: binding
T1 construct: expressed in transfected cells; host or cells: HEK-293 cells stably transfected with the pCMVneo-hAR plasmid (G-418 selection); cytosol used
T1 sequence (P10275 1-920): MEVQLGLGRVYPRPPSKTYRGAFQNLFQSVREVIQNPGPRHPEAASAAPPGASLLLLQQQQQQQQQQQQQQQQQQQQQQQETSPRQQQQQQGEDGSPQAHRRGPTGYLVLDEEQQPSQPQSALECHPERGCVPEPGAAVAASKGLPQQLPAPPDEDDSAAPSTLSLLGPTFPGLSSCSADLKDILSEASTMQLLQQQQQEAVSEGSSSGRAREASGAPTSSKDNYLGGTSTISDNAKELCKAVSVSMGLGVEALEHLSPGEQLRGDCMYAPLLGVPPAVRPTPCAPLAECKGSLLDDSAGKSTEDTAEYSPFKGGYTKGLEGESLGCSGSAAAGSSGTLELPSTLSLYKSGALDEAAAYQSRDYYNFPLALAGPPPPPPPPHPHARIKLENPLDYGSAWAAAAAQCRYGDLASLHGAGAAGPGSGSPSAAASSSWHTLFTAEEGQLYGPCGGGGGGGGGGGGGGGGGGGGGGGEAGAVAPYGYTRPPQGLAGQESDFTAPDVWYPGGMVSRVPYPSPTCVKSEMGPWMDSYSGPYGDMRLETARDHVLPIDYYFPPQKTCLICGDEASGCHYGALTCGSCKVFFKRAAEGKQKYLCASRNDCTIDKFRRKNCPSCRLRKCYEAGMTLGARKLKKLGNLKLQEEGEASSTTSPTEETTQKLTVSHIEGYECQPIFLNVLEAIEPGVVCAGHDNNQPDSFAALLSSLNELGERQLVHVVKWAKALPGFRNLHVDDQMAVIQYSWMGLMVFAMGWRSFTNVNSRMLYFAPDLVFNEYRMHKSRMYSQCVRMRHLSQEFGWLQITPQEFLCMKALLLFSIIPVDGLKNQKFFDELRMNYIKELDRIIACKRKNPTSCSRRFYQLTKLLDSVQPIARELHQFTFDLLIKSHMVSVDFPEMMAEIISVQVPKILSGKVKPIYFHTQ

[6] = biological target: T2, Rat Androgen Receptor (Rattus norvegicus, UniProt P15207); assay: Androgen receptor binding assay (HAP, [3H]R1881), rat prostate cytosol
T2 construct: ventral prostates collected from 24 h-gonadectomized rats were homogenized in buffer A; from tissue; host or cells: rat ventral prostate cytosol (24 h-gonadectomized rats)
T2 sequence (P15207 1-902): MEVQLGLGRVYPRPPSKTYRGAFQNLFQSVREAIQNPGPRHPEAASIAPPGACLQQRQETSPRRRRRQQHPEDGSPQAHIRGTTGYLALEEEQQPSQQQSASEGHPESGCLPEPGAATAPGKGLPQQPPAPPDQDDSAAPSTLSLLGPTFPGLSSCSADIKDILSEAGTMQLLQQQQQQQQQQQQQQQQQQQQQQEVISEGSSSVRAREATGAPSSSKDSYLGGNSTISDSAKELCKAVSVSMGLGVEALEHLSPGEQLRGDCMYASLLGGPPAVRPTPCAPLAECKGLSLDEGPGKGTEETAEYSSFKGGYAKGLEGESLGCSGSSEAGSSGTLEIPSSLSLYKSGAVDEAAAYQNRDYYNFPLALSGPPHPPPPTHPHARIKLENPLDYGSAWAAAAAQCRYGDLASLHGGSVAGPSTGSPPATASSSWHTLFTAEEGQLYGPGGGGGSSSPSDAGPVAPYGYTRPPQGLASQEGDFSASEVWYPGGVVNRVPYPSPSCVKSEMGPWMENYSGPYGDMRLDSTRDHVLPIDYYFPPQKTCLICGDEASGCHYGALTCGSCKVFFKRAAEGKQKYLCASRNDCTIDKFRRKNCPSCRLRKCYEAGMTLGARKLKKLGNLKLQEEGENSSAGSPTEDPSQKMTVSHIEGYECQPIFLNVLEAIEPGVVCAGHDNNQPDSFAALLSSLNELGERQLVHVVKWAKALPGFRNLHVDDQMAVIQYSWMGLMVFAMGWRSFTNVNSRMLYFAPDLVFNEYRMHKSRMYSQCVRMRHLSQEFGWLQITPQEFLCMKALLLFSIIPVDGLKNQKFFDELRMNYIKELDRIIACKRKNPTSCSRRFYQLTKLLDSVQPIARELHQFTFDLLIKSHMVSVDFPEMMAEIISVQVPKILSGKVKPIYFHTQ
Method: On the morning of the binding assay, ventral prostates collected from 24 h-gonadectomized rats were homogenized in buffer A (1 g of tissue in 5 mL) and the homogenate was centrifuged as described above.
Androgen binding is measured using the hydroxylapatite (HAP) assay. In brief, the radioactive steroid [^3H]R1881 solubilized in ethanol is diluted with buffer B (10 mM Tris-HCl, 1.5 mM EDTA disodium salt, 10 mM α-monothioglycerol, pH 7.4). Aliquots of the cell or prostate cytosol preparation (0.1 ml) are then incubated with 5 nM [^3H]R1881 (0.1 ml, ˜100 000 cpm) in the presence or absence of the indicated concentrations of unlabeled compounds (0.1 ml, prepared in buffer B containing 30% ethanol) for 16-18 h at 0-4° C. Triamcinolone acetonide (TAC; 100 nM) is added to mask progesterone receptors. Unbound steroids are separated by incubation for 40 min at 0-4° C. with 0.3 ml HAP prepared in buffer P (50 mM Tris-HCl, 10 mM KH2PO4, pH 7.4). After incubation with HAP and 10 min of centrifugation at 1000×g, the pellet is washed 3 times with 1 ml of buffer P. Thereafter, the radioactivity is extracted from the pellet by incubation at room temperature for 60 min with 1 ml of ethanol. After centrifugation, the supernatant is decanted into a scintillation vial and the pellet is extracted again with ethanol. After the addition of scintillation liquid, the radioactivity is measured in a liquid scintillation counter.

[7] = system: Immature Rat CX + DHT; assay: animal or person; type: in vivo; details: for change in vivo at 0.1 mg / change in vivo at 0.5 mg: Rattus norvegicus, 168 h
[8] = in vivo
[9] = system: Immature Rat CX
[10] = system: Intact Rat; assay: In vivo activity in intact rat (organ and muscle weight); details: rat, in vivo
[11] = po, read-out: In Vivo Antagonist % Change vs DHT (CX = −100%) SV
[12] = po, read-out: In Vivo Antagonist % Change vs DHT (CX = −100%) VP

SMILES: C[C@]12CCC3c4ccc(C#N)c(F)c4CCC3C1CC[C@@]2(O)Cc1cc[n+]([O-])cc1 (stereo partly drawn) [EM-5854]
- Shionogi cells Antiandrogenic activity Ki OH-Flu/Ki compound [1]: 5.5 and 5.5 ± 1.2
- Ki [1]: 2.5 ± 0.4 nM
- AUC [2]: 2930 ± 233 ng·h/mL
- % change vs 4-DIONE Cont (CX Cont = −100% inh) Seminal Vesicles ([3]; 0.2 mg/rat/per os/ID): −69 ± 7%
- % change vs 4-DIONE Cont (CX Cont = −100% inh) Ventral Prostate ([3]; 0.2 mg/rat/per os/ID): −34 ± 7%
- % change vs 4-DIONE Cont (CX Cont = −100% inh) Seminal Vesicles ([3]; 1 mg/rat/per os/ID): −109 ± 5%
- % change vs 4-DIONE Cont (CX Cont = −100% inh) Ventral Prostate ([3]; 1 mg/rat/per os/ID): −67 ± 2%
- reversal of the stimulatory effect of 4-dione on ventral prostate weight ([3]; daily oral dose of 1 mg/rat): 67%
- 4-dione-induced stimulation of seminal vesicle weight ([3]; orchidectomized mature rats with 4-dione implants): completely reversed
- activity profile (antiandrogen, SARM or androgen) [4]: pure antiandrogen
- Human Androgen Receptor Binding RBA (%) R1881 = 100% [5]: 0.63 ± 0.08%
- Rat Androgen Receptor Binding RBA (%) R1881 = 100% [6]: 0.4 ± 0.1%
- change in vivo at 0.1 mg [7, 11]: -86 ± 2%
- change in vivo at 0.5 mg [7, 11]: -85%
- change in vivo at 0.1 mg [7, 12]: -46 ± 2%
- change in vivo at 0.5 mg [7, 12]: -76%
- inhibition of DHT-stimulated seminal vesicle weight ([7]; rat, in vivo): 85%
- inhibition of DHT-stimulated ventral prostate weight ([7]; rat, in vivo): 76%
- potency on rat androgen-sensitive parameters relative to currently available antiandrogens ([7]; rat, in vivo): approximately 5 times

SMILES: CC12CCC3c4ccc(C#N)c(Cl)c4CCC3C1CCCC2(O)Cc1cc[n+]([O-])cc1 (stereo not drawn) [EM-5945]
- Shionogi cells Antiandrogenic activity Ki OH-Flu/Ki compound [1]: 13
- Ki [1]: 0.9 nM
- Prostate Conc, 7 h (Rat) ([8]; po): 1539 ng/g
- Human Androgen Receptor Binding RBA (%) R1881 = 100% [5]: 2.8 ± 0.4%
- Rat Androgen Receptor Binding RBA (%) R1881 = 100% [6]: 0.3%

SMILES: CC12CCC3c4ccc(C#N)c(F)c4CCC3C1CCC2(O)Cc1ccc(-c2ccc[n+]([O-])c2)cc1 (stereo not drawn) [EM-8419]
- % of stim of basal at 10^−7M (% over basal) [1]: +94 ± 17%
- % of stim of basal at 10^−7 M (DHT = 100%) [1]: +62 ± 11%
- % of inh of DHT at 10^−7 M (Basal = 100%) ([1]; 0.0003 µM): +21 ± 11%
- In Vivo Agonist Rat CX % change vs CX (DHT CONT = +100%) Bulbo [9]: +115 ± 4%
- In Vivo Agonist Rat CX % change vs CX (DHT CONT = +100%) SV [9]: +26 ± 2%
- In Vivo Agonist Rat CX % change vs CX (DHT CONT = +100%) VP [9]: +39 ± 6%
- activity profile (antiandrogen, SARM or androgen) [4]: became a SARM
- AUC 24 h 0.5 mg/rat oral [8]: 5725 ± 595 ng·h/mL
- Human Androgen Receptor Binding RBA (%) R1881 = 100% [5]: 83 ± 35%
- In Vivo Intact Rat % change vs Intact CONT (Intact CONT = +100%; CX CONT = 0%) Bulbo [10]: +238 ± 12%
- In Vivo Intact Rat % change vs Intact CONT (Intact CONT = +100%; CX CONT = 0%) SZ [10]: +76 ± 2%
- In Vivo Intact Rat % change vs Intact CONT (Intact CONT = +100%; CX CONT = 0%) VP [10]: +89 ± 5%
- In Vivo Anti-A Rat CX + DHT % change vs DHT (CX CONT = −100%) Bulbo ([7]; rat, in vivo, po): +36 ± 11%
- In Vivo Anti-A Rat CX + DHT % change vs DHT (CX CONT = −100%) SV ([7]; rat, in vivo, po): −33 ± 7%
- In Vivo Anti-A Rat CX + DHT % change vs DHT (CX CONT = −100%) VP ([7]; rat, in vivo, po): −36 ± 0%
